Common to all, as to assay type: in vivo
For data set [1], the system named is Echinochloa oryzacola Vasing. The data set is described as follows: Test Example 1: herbicidal activity, application before weed generation in submerged conditions (symbol A). Summed up:
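Flooded alluvial soil (4 cm water) was mixed-sown with the three weed species, and 2.5-leaf rice seedlings were transplanted. On sowing day, a water-diluted emulsion at a predetermined rate was applied to the water surface. After 3 weeks in a 25–30 °C greenhouse, effect was scored 0–5.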

For another data set, the system named is transplanted rice plant. The data set is described as follows: Test Example 1: effect on crop, application before weed generation in submerged conditions (symbol a). The method, boiled down:
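Alluvial soil pots flooded to 4 cm water, sown with Echinochloa oryzacola, Scirpus juncoides and Monochoria vaginalis, then transplanted with 2.5 leaf stage rice seedlings; pre-emergence application. Greenhouse 25° C. to 30° C.; scored 0–5 by herbicidal ratio 3 weeks after application.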

In data set [2] the test system is directly sowed rice plant. The data set is described as follows: Test Example 3: effect on crop by foliage application, Wagner pot (symbol b). As to conditions: for b (directly sowed rice plant) effect on crop grade: Table 24. Summed up: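 Greenhouse culture at 25–30 °C of seeded rice, Cyperus difformis, Leptochloa chinensis and Echinochloa crus-galli var. crus-galli, in alluvial soil held under 0.1–0.5 cm of water in a Wagner pot.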

The subject of data set [3] is Echinochloa crus-galli var. crus-galli. Kind of data set: Test Example 4: herbicidal effect by soil treatment (symbol H). Summed up: (§1)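 Seeds were sown in sterilized diluvial soil, covered with about 1.5 cm of soil, and the soil surface was sprayed with a water-diluted emulsion of the compound at a predetermined rate. Plants grew in a greenhouse at 25° C. to 30° C.; effects were scored visually 3 weeks after application.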

Data set [4] concerns Abutilon theophrasti. Kind of data set: Test Example 4: herbicidal effect by soil treatment (symbol M). The method, boiled down: as §1
A further data set deals with Galium spurium. The data set is described as follows: Test Example 4: herbicidal effect by soil treatment (symbol Q). The source says:
Herbicidal Effect Test by Soil Treatment
Sterilized diluvial soil was placed in a plastic box having a length of 21 cm, a width of 13 cm, and a depth of 7 cm. Each of the seeds of Digitaria ciliaris, Setaria viridis, Echinochloa crus-galli var. crus-galli, Avena fatua, Alopecurus myosuroides, Lolium multiflorum Lam., Apera spica-venti, Abutilon theophrasti, Amaranthus retroflexus, Chenopodium album, Stellaria media, Galium spurium, Veronica persica, corn, soybean, rice, wheat, beet, and rapeseed was sowed in a spot-like manner and was covered with the soil of a thickness of about 1.5 cm. Subsequently, the emulsion agent of the compound present invention prepared in accordance with Formulation Example 2 was diluted with water so as to be a predetermined herbicide amount and the diluted emulsion agent was uniformly applied to the surface of the soil with a small-size spray. The plastic box was placed in a greenhouse of 25° C. to 30° C. to grow plant. 3 weeks later from the herbicide application, the effect to each plant was investigated in accordance with the criteria of Test Example 1.

Data set [5] relates to soybean. The data set is described as follows: Test Example 4: effect on crop by soil treatment (symbol d). As to conditions: for d: soybean, effect on crop grade: application herbicide amount 320 g/ha. Summed up:
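Crop seeds, among them rice, wheat, beet and rapeseed, were sown in sterilized diluvial soil and covered with about 1.5 cm of soil. Boxes were kept in a greenhouse at 25° C. to 30° C. for plant growth.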

For the next data set, the system named is Digitaria ciliaris. Kind of data set: Test Example 5: herbicidal effect by foliage application, plastic box (symbol F). As to conditions: 3 weeks after application. The method, boiled down: (§2)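 After sowing into sterilized diluvial soil and growing two weeks under glass at 25° C. to 30° C., seedlings receive a uniform foliar spray of diluted emulsion. Damage is judged visually three weeks on.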

Another data set has as its system Avena fatua. Kind of data set: Test Example 5: herbicidal effect by foliage application, plastic box (symbol I). As to conditions: 3 weeks after application. The method, boiled down:
as §2

In data set [6] the test system is Abutilon theophrasti. Kind of data set: Test Example 5: herbicidal effect by foliage application, plastic box (symbol M). As to conditions: 3 weeks after application. The method, boiled down: as §2
The subject of a further data set is Veronica persica. Kind of data set: Test Example 5: herbicidal effect by foliage application, plastic box (symbol R). As to conditions: 3 weeks after application. The method, boiled down: as §2
A further data set deals with corn. Kind of data set: Test Example 5: effect on crop by foliage application, plastic box (symbol c). As to conditions: 3 weeks after application. Summed up:
(§3)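 Foliage-application test plants come from spot sowing in sterilized diluvial soil under a soil layer of about 1.5 cm, grown at 25° C. to 30° C. in a greenhouse.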

Data set [7] concerns soybean. The data set is described as follows: Test Example 5: effect on crop by foliage application, plastic box (symbol d). As to conditions: 3 weeks after application. The method, boiled down: as §3
The test system of the next data set is Apera spica-venti. Kind of data set: Test Example 4: herbicidal effect by soil treatment (symbol L). The method, boiled down:
as §1

Setting [8] is: application herbicide amount 320 g/ha.
Setting [9] is: application herbicide amount 192 g/ha.

Structures are written as SMILES.

Turning to `CON=C(CC1CC(O)=C(c2c(C)cc(C)cc2OC)C1=O)C1CC1` (mixture of isomers) [13-002], the “A (Echinochloa oryzacola Vasing.) herbicidal effect grade” value in data set [1] (setting [8]) was 5 (Herbicidal ratio of 90% or more (almost completely withered)). Further, the “a (transplanted rice plant) effect on crop grade” value in the data set on transplanted rice plant (setting [8]) is recorded as 5 (Herbicidal ratio of 90% or more (almost completely withered)). Further, the “b (directly sowed rice plant) effect on crop grade” value in [2] (setting [8]) is recorded as 5 (Herbicidal ratio of 90% or more (almost completely withered)). Moreover, the “H: Echinochloa crus-galli var. crus-galli, herbicidal effect grade” value in [3] (setting [8]) is given as 5 (Herbicidal ratio of 90% or more (almost completely withered)). For the same compound, the “M: Abutilon theophrasti, herbicidal effect grade” value with Abutilon theophrasti [4] (setting [8]) was 0 (Herbicidal ratio of 5% or lower (almost no effect)); in the data set with Abutilon theophrasti [6] (320 g/ha), 2 (Herbicidal ratio of 20% or higher and lower than 40%). In the data set on Galium spurium (setting [8]), the “Q: Galium spurium, herbicidal effect grade” value (“Q: Galium spurium” for short) is listed as 0 (Herbicidal ratio of 5% or lower (almost no effect)). Moreover, the “d: soybean, effect on crop grade” value with soybean [5] is 1 (Herbicidal ratio of 5% or higher and lower than 20%); with soybean [7] (320 g/ha), 2 (Herbicidal ratio of 20% or higher and lower than 40%). In addition, in the data set on Digitaria ciliaris (320 g/ha), the “F: Digitaria ciliaris, herbicidal effect grade” value was 5 (Herbicidal ratio of 90% or more (almost completely withered)). Moreover, the “I: Avena fatua, herbicidal effect grade” value in the data set on Avena fatua (320 g/ha) is on record as 5 (Herbicidal ratio of 90% or more (almost completely withered)). Further, in the data set on Veronica persica (320 g/ha), the “R: Veronica persica, herbicidal effect grade” value is 4 (Herbicidal ratio of 70% or higher and lower than 90%). Further, the “c: corn, effect on crop grade” value with corn (320 g/ha) was 5 (Herbicidal ratio of 90% or more (almost completely withered)).
`CON=C(CC1CC(OC(=O)C(C)(C)C)=C(c2c(C)cc(C)cc2OC)C1=O)C1CC1` (mixture of isomers) [13-006]: the “A (Echinochloa oryzacola Vasing.) herbicidal effect grade” value in data set [1] (setting [8]) is 5 (Herbicidal ratio of 90% or more (almost completely withered)). For the same compound, the “a (transplanted rice plant) effect on crop grade” value with transplanted rice plant (setting [8]) is reported as 5 (Herbicidal ratio of 90% or more (almost completely withered)). Also, in data set [2] (setting [8]), the “b (directly sowed rice plant) effect on crop grade” value was 5 (Herbicidal ratio of 90% or more (almost completely withered)). Further, in data set [3] (setting [8]), the “H: Echinochloa crus-galli var. crus-galli, herbicidal effect grade” value is on record as 5 (Herbicidal ratio of 90% or more (almost completely withered)). The “M: Abutilon theophrasti, herbicidal effect grade” value in the data set on Abutilon theophrasti [4] (setting [8]) is 5 (Herbicidal ratio of 90% or more (almost completely withered)); in the data set with Abutilon theophrasti [6] (320 g/ha) it was 4 (Herbicidal ratio of 70% or higher and lower than 90%). Also, in the data set with Galium spurium (setting [8]), the “Q: Galium spurium” value is on record as 0 (Herbicidal ratio of 5% or lower (almost no effect)). Moreover, the “d: soybean, effect on crop grade” value in the data set on soybean [5] was 0 (Herbicidal ratio of 5% or lower (almost no effect)); in the data set on soybean [7] (320 g/ha), 2 (Herbicidal ratio of 20% or higher and lower than 40%). In addition, in the data set on Digitaria ciliaris (320 g/ha), the “F: Digitaria ciliaris, herbicidal effect grade” value is recorded as 5 (Herbicidal ratio of 90% or more (almost completely withered)). Moreover, the “I: Avena fatua, herbicidal effect grade” value in the data set on Avena fatua (320 g/ha) is recorded as 5 (Herbicidal ratio of 90% or more (almost completely withered)). In addition, the “R: Veronica persica, herbicidal effect grade” value in the data set on Veronica persica (320 g/ha) is 2 (Herbicidal ratio of 20% or higher and lower than 40%). In the data set with corn (320 g/ha), the “c: corn, effect on crop grade” value is recorded as 5 (Herbicidal ratio of 90% or more (almost completely withered)).
For the compound `CON=C(C)CC1CC(OC(=O)C2CCCO2)=C(c2c(C)cc(C)cc2C)C1=O` (stereo not drawn) [1-076], the “Herbicidal effect grade, A: Echinochloa oryzacola Vasing.” value in data set [1] (setting [9]) was 4 (Herbicidal ratio of 70% or higher and lower than 90%). Besides, in the data set on transplanted rice plant (setting [9]), the “Effect grade on crop, a: transplanted rice plant” value is 5 (Herbicidal ratio of 90% or more (almost completely withered)). The “effect on crop b (directly sowed rice plant), grade 0-5” value in data set [2] (setting [9]) was 5 (Herbicidal ratio of 90% or more (almost completely withered)). Also, the “H: Echinochloa crus-galli var. crus-galli, herbicidal effect grade” value in data set [3] (192 g/ha) is reported as 5 (Herbicidal ratio of 90% or more (almost completely withered)). For the same compound, the “L: Apera spica-venti, herbicidal effect grade” value in the data set with Apera spica-venti (192 g/ha) is listed as 5 (Herbicidal ratio of 90% or more (almost completely withered)). Besides, the “M: Abutilon theophrasti, herbicidal effect grade” value in the data set on Abutilon theophrasti [4] (192 g/ha) is 4 (Herbicidal ratio of 70% or higher and lower than 90%). Also, the “Q: Galium spurium” value with Galium spurium (192 g/ha) is reported as 0 (Herbicidal ratio of 5% or lower (almost no effect)). Moreover, the “d: soybean, effect grade on crop” value in the data set on soybean [5] (192 g/ha) is 0 (Herbicidal ratio of 5% or lower (almost no effect)). Besides, the “F: Digitaria ciliaris, herbicidal effect (criteria 0-5)” value with Digitaria ciliaris (192 g/ha) was 5 (Herbicidal ratio of 90% or more (almost completely withered)). Also, the “I: Avena fatua, herbicidal effect (criteria 0-5)” value with Avena fatua (192 g/ha) is given as 5 (Herbicidal ratio of 90% or more (almost completely withered)). Besides, the “M: Abutilon theophrasti, herbicidal effect (criteria 0-5)” value in the data set on Abutilon theophrasti [6] (192 g/ha) was 4 (Herbicidal ratio of 70% or higher and lower than 90%). In addition, in the data set on Veronica persica (192 g/ha), the “R: Veronica persica, herbicidal effect (criteria 0-5)” value was 3 (Herbicidal ratio of 40% or higher and lower than 70%). The “c: corn, effect on crop (criteria 0-5)” value in the data set with corn (192 g/ha) was 4 (Herbicidal ratio of 70% or higher and lower than 90%). In addition, in the data set on soybean [7] (192 g/ha), the “d: soybean, effect on crop (criteria 0-5)” value is 4 (Herbicidal ratio of 70% or higher and lower than 90%).
Consider `CON=C(C)CC1CC(OC(=O)C(CSC)=NOC)=C(c2c(C)cc(C)cc2C)C1=O` (stereo not drawn) [1-098], for which, in [1] (setting [8]), the “Herbicidal effect grade, A: Echinochloa oryzacola Vasing.” value was 5 (Herbicidal ratio of 90% or more (almost completely withered)). In addition, in the data set on transplanted rice plant (setting [8]), the “Effect grade on crop, a: transplanted rice plant” value was 5 (Herbicidal ratio of 90% or more (almost completely withered)). In addition, in data set [2] (setting [8]), the “effect on crop b (directly sowed rice plant), grade 0-5” value is listed as 5 (Herbicidal ratio of 90% or more (almost completely withered)). In addition, the “H: Echinochloa crus-galli var. crus-galli, herbicidal effect grade” value in data set [3] (320 g/ha) is listed as 5 (Herbicidal ratio of 90% or more (almost completely withered)). Further, the “L: Apera spica-venti, herbicidal effect grade” value in the data set with Apera spica-venti (320 g/ha) is 5 (Herbicidal ratio of 90% or more (almost completely withered)). For the same compound, the “M: Abutilon theophrasti, herbicidal effect grade” value in the data set with Abutilon theophrasti [4] (320 g/ha) is 4 (Herbicidal ratio of 70% or higher and lower than 90%). Further, the “Q: Galium spurium” value with Galium spurium (320 g/ha) is 0 (Herbicidal ratio of 5% or lower (almost no effect)). For the same compound, in the data set with soybean [5] (320 g/ha), the “d: soybean, effect grade on crop” value is 2 (Herbicidal ratio of 20% or higher and lower than 40%). For the same compound, in the data set with Digitaria ciliaris (320 g/ha), the “F: Digitaria ciliaris, herbicidal effect (criteria 0-5)” value is 5 (Herbicidal ratio of 90% or more (almost completely withered)). In addition, the “I: Avena fatua, herbicidal effect (criteria 0-5)” value in the data set on Avena fatua (320 g/ha) is reported as 5 (Herbicidal ratio of 90% or more (almost completely withered)). The “M: Abutilon theophrasti, herbicidal effect (criteria 0-5)” value in the data set with Abutilon theophrasti [6] (320 g/ha) is 4 (Herbicidal ratio of 70% or higher and lower than 90%). Besides, in the data set on Veronica persica (320 g/ha), the “R: Veronica persica, herbicidal effect (criteria 0-5)” value was 3 (Herbicidal ratio of 40% or higher and lower than 70%). Further, the “c: corn, effect on crop (criteria 0-5)” value with corn (320 g/ha) is on record as 5 (Herbicidal ratio of 90% or more (almost completely withered)). Also, the “d: soybean, effect on crop (criteria 0-5)” value in the data set on soybean [7] (320 g/ha) is 3 (Herbicidal ratio of 40% or higher and lower than 70%).

Values taken from patent US11000033B2, “Ketone or oxime compound, and herbicide” (NISSAN CHEMICAL CORPORATION, priority 2014, dated 2021).
